Assay results as given in patent US20250312499A1, “KISSPEPTIN RECEPTOR (KISS1R) TARGETED THERAPEUTICS AND USES THEREOF” (priority 2024, published 2025).
Numbered stars: 1 amine (or outer) side, 2 acyl side, 3 side chain; on linkers, the order of the positions; unused ones are H or OH. Square brackets hold non-standard residues; d marks the D form. Peptide text beside a SMILES is read from it. * marks the point of attachment. DOTA = O=C(O)CN1CCN(CC(=O)O)CCN(CC(=O)*)CCN(CC(=O)O)CC1; Gly(N-(3-F-4-Me-benzyl)) = Cc1ccc(CNCC(=O)*)cc1F; Gly(Nα-4-MeO-benzyl) = COc1ccc(CNCC(=O)*)cc1; X4 = O=C(c1ccc(-c2ccccc2OCCCN[*:1])cc1)[*:2]; Api(1-amidino) = N=C(N)N1CCC(N)(C(=O)O)CC1; d2Nal = N[C@H](Cc1ccc2ccccc2c1)C(=O)O; 4Pal = N[C@@H](Cc1ccncc1)C(=O)O; d4Pal = N[C@H](Cc1ccncc1)C(=O)O; Api = NC1(C(=O)O)CCNCC1; Ahx = NCCCCCC(=O)O; azaGly = NNC(=O)O

What follows are compounds tested against human kisspeptin receptor (Homo sapiens (Human), UniProt Q969F8) (assay: Human KISS1R binding assay (membrane competition binding)). Details: 90 min at room temperature; competition with 0.2 nM [125I]-metastin (45-54); Flp-In T-Rex 293 kisspeptin membranes; metal complexes nonradioactive Ga, In, Lu; read-out: hKiSSR Binding Ki (90 min).
human kisspeptin receptor, sequence (Q969F8 whole entry): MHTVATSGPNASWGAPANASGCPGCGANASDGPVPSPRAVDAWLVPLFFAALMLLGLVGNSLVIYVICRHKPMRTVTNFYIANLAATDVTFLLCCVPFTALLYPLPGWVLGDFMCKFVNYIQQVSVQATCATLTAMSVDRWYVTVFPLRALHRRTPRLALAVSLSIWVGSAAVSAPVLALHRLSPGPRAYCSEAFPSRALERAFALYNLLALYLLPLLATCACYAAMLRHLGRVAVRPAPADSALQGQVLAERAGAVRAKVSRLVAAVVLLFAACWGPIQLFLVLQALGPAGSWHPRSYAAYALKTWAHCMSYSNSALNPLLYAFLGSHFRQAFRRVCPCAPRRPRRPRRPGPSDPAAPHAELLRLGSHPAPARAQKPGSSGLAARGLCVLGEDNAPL
How it was run: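 Membranes from tetracycline-induced (48 h) Flp-In T-Rex 293 cells expressing receptor, 5–10 μg, incubated 90 min at room temperature with 0.2 nM [125I]-metastin (45-54) and competitor (typically 0–10,000 nM) in Tris/Mg/Ca/EGTA/0.1% BSA, pH 7.4. Filtration, washing, counting; Ki by non-linear regression.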

Ki	SMILES
< 10 nM	Cc1ccc(CNCC(=O)N2CCC(NC(=O)[C@H](CC(C)C)NC(=O)NNC(=O)[C@H](Cc3ccccc3)NC(=O)[C@@H](NC(=O)[C@H](CC(N)=O)NC(=O)[C@@H](Cc3ccc(O)cc3)NC(=O)CCCCCNC(=O)CN3CCN(CC(=O)O)CCN(CC(=O)O)CCN(CC(=O)O)CC3)[C@@H](C)O)(C(=O)N[C@@H](Cc3ccncc3)C(N)=O)CC2)cc1F [Compound 291] ({DOTA-Ahx}-[dY]NTF[azaGly]L[Api](Gly(N-(3-F-4-Me-benzyl)))[4Pal]-NH2)
< 10 nM	Cc1ccc(CNCC(=O)N2CCC(NC(=O)[C@H](CC(C)C)NC(=O)NNC(=O)[C@H](Cc3ccccc3)NC(=O)[C@@H](NC(=O)[C@H](CC(N)=O)NC(=O)[C@@H](Cc3ccc4ccccc4c3)NC(=O)CCCCCNC(=O)CN3CCN(CC(=O)O)CCN(CC(=O)O)CCN(CC(=O)O)CC3)[C@@H](C)O)(C(=O)N[C@@H](Cc3ccncc3)C(N)=O)CC2)cc1F [Compound 292] ({DOTA-Ahx}-[d2Nal]NTF[azaGly]L[Api](Gly(N-(3-F-4-Me-benzyl)))[4Pal]-NH2)
< 10 nM	COc1ccc(CNCC(=O)N2CCC(NC(=O)[C@H](CC(C)C)NC(=O)NNC(=O)[C@H](Cc3ccccc3)NC(=O)[C@@H](NC(=O)[C@H](CC(N)=O)NC(=O)[C@@H](Cc3c[nH]c4ccccc34)NC(=O)[C@@H](Cc3ccc(O)cc3)NC(=O)CCCCCNC(=O)CN3CCN(CC(=O)O)CCN(CC(=O)O)CCN(CC(=O)O)CC3)[C@@H](C)O)(C(=O)N[C@@H](Cc3ccncc3)C(N)=O)CC2)cc1 [Compound 293] ({DOTA-Ahx}-[dY][dW]NTF[azaGly]L[Api](Gly(Nα-4-MeO-benzyl))[4Pal]-NH2)
< 10 nM	Cc1ccc(CNCC(=O)N2CCC(NC(=O)[C@H](CC(C)C)NC(=O)NNC(=O)[C@H](Cc3ccccc3)NC(=O)[C@@H](NC(=O)[C@H](CC(N)=O)NC(=O)[C@@H](Cc3ccncc3)NC(=O)[C@@H](Cc3ccc(O)cc3)NC(=O)CCCCCNC(=O)CN3CCN(CC(=O)O)CCN(CC(=O)O)CCN(CC(=O)O)CC3)[C@@H](C)O)(C(=O)N[C@@H](Cc3ccncc3)C(N)=O)CC2)cc1F [Compound 294] ({DOTA-Ahx}-[dY][d4Pal]NTF[azaGly]L[Api](Gly(N-(3-F-4-Me-benzyl)))[4Pal]-NH2)
< 10 nM	Cc1ccc(CNCC(=O)N2CCC(NC(=O)[C@H](CC(C)C)NC(=O)NNC(=O)[C@H](Cc3ccccc3)NC(=O)[C@@H](NC(=O)[C@H](CC(N)=O)NC(=O)[C@@H](Cc3ccncc3)NC(=O)CCCCCNC(=O)CN3CCN(CC(=O)O)CCN(CC(=O)O)CCN(CC(=O)O)CC3)[C@@H](C)O)(C(=O)N[C@@H](Cc3ccncc3)C(N)=O)CC2)cc1F [Compound 295] ({DOTA-Ahx}-[d4Pal]NTF[azaGly]L[Api](Gly(N-(3-F-4-Me-benzyl)))[4Pal]-NH2)
< 10 nM	Cc1ccc(CNCC(=O)N2CCC(NC(=O)[C@H](CC(C)C)NC(=O)NNC(=O)[C@H](Cc3ccccc3)NC(=O)[C@@H](NC(=O)[C@H](CC(N)=O)NC(=O)[C@@H](Cc3ccncc3)NC(=O)CCCCCNC(=O)CN3CCN(CC(=O)O)CCN(CC(=O)O)CCN(CC(=O)O)CC3)[C@@H](C)O)(C(=O)N[C@@H](Cc3c[nH]c4ccccc34)C(N)=O)CC2)cc1F [Compound 296] ({DOTA-Ahx}-[d4Pal]NTF[azaGly]L[Api](Gly(N-(3-F-4-Me-benzyl)))W-NH2)
< 10 nM	COc1ccc(CNCC(=O)N2CCC(NC(=O)[C@H](CC(C)C)NC(=O)NNC(=O)[C@H](Cc3ccccc3)NC(=O)[C@@H](NC(=O)[C@H](CC(N)=O)NC(=O)[C@@H](Cc3ccncc3)NC(=O)[C@@H](Cc3ccc(O)cc3)NC(=O)CCCCCNC(=O)CN3CCN(CC(=O)O)CCN(CC(=O)O)CCN(CC(=O)O)CC3)[C@@H](C)O)(C(=O)N[C@@H](Cc3ccncc3)C(N)=O)CC2)cc1 [Compound 299] ({DOTA-Ahx}-[dY][d4Pal]NTF[azaGly]L[Api](Gly(Nα-4-MeO-benzyl))[4Pal]-NH2)
< 10 nM	CC(C)C[C@H](NC(=O)NNC(=O)[C@H](Cc1ccccc1)NC(=O)[C@@H](NC(=O)[C@H](CC(N)=O)NC(=O)[C@@H](Cc1ccc2ccccc2c1)NC(=O)[C@@H](Cc1ccc(O)cc1)NC(=O)CCCCCNC(=O)CN1CCN(CC(=O)O)CCN(CC(=O)O)CCN(CC(=O)O)CC1)[C@@H](C)O)C(=O)NC1(C(=O)N[C@@H](Cc2ccccc2)C(N)=O)CCN(C(=N)N)CC1 [Compound 300] ({DOTA-Ahx}-[dY][d2Nal]NTF[azaGly]L[Api(1-amidino)]F-NH2)
< 10 nM	CC(C)C[C@H](NC(=O)NNC(=O)[C@H](Cc1ccccc1)NC(=O)[C@@H](NC(=O)[C@H](CC(N)=O)NC(=O)[C@@H](Cc1ccc2ccccc2c1)NC(=O)CCCCCNC(=O)CN1CCN(CC(=O)O)CCN(CC(=O)O)CCN(CC(=O)O)CC1)[C@@H](C)O)C(=O)NC1(C(=O)N[C@@H](Cc2ccccc2)C(N)=O)CCN(C(=N)N)CC1 [Compound 301] ({DOTA-Ahx}-[d2Nal]NTF[azaGly]L[Api(1-amidino)]F-NH2)
< 10 nM	CC(C)C[C@H](NC(=O)NNC(=O)[C@H](Cc1ccccc1)NC(=O)[C@@H](NC(=O)[C@H](CC(N)=O)NC(=O)[C@@H](Cc1ccc2ccccc2c1)NC(=O)CN1CCN(CC(=O)O)CCN(CC(=O)O)CCN(CC(=O)O)CC1)[C@@H](C)O)C(=O)NC1(C(=O)N[C@@H](Cc2ccccc2)C(N)=O)CCN(C(=N)N)CC1 [Compound 302] ({DOTA}-[d2Nal]NTF[azaGly]L[Api(1-amidino)]F-NH2)
< 10 nM	Cc1ccc(CNCC(=O)N2CCC(NC(=O)[C@H](CC(C)C)NC(=O)NNC(=O)[C@H](Cc3ccccc3)NC(=O)[C@@H](NC(=O)[C@H](CC(N)=O)NC(=O)[C@@H](Cc3ccc4ccccc4c3)NC(=O)[C@@H](Cc3ccc(O)cc3)NC(=O)CCCCCNC(=O)CN3CCN(CC(=O)O)CCN(CC(=O)O)CCN(CC(=O)O)CC3)[C@@H](C)O)(C(=O)N[C@@H](Cc3c[nH]c4ccccc34)C(N)=O)CC2)cc1F [Compound 304] ({DOTA-Ahx}-[dY][d2Nal]NTF[azaGly]L[Api](Gly(N-(3-F-4-Me-benzyl)))W-NH2)
< 10 nM	Cc1ccc(CNCC(=O)N2CCC(NC(=O)[C@H](CC(C)C)NC(=O)NNC(=O)[C@H](Cc3ccccc3)NC(=O)CCCCCNC(=O)[C@H](Cc3ccc(O)cc3)NC(=O)CNC(=O)CN3CCN(CC(=O)O)CCN(CC(=O)O)CCN(CC(=O)O)CC3)(C(=O)N[C@@H](Cc3c[nH]c4ccccc34)C(N)=O)CC2)cc1F [Compound 305] ({DOTA}-GY[Ahx]F[azaGly]L[Api](Gly(N-(3-F-4-Me-benzyl)))W-NH2)

SMILES	Ki
Cc1ccc(CNCC(=O)N2CCC(NC(=O)[C@H](CC(C)C)NC(=O)NNC(=O)c3ccc(-c4ccccc4OCCCNC(=O)CCCCCNC(=O)CN4CCN(CC(=O)O)CCN(CC(=O)O)CCN(CC(=O)O)CC4)cc3)(C(=O)N[C@@H](Cc3c[nH]c4ccccc34)C(N)=O)CC2)cc1F [Compound 297] ({DOTA-Ahx}-[X4][azaGly]L[Api](Gly(N-(3-F-4-Me-benzyl)))W-NH2)	< 10 nM
Cc1ccc(CNCC(=O)N2CCC(NC(=O)[C@H](CC(C)C)NC(=O)NNC(=O)c3ccc(-c4ccccc4OCCCNC(=O)CN4CCN(CC(=O)O)CCN(CC(=O)O)CCN(CC(=O)O)CC4)cc3)(C(=O)N[C@@H](Cc3c[nH]c4ccccc34)C(N)=O)CC2)cc1F [Compound 298] ({DOTA}-[X4][azaGly]L[Api](Gly(N-(3-F-4-Me-benzyl)))W-NH2)	< 10 nM
